Data on nine compounds can be found in US4649198A, “Imidazo(1,5-a)pyrimidine derivatives and their use as antimycotic agents” (Kyorin Pharmaceutical Co., Ltd., priority 1983, dated 1987).

Common to all, as to assay: antifungal activity, standard agar dilution streak method
Type in all cases: cell-based
In general terms: Agar dilution tests growth on a series of plates holding different concentrations.

The subject of test [1] is Aspergillus fumigatus MTU-06002. To be noted: MTU06002, read-out: Minimum Inhibitory Concentration. Here is the method:
(§1) The antifungal activity of the compound of the present invention was assayed by the standard agar dilution streak method against fungi.

Another test deals with Candida albicans 3147. To be noted: read-out: Minimum Inhibitory Concentration. Here is the method:
as §1

Test [2] deals with Candida albicans IFO-1388. To be noted: IFO1388, read-out: Minimum Inhibitory Concentration. As for the experimental part:
as §1

Test [3] deals with Candida albicans IFO-1594. To be noted: IFO1594, read-out: Minimum Inhibitory Concentration. Here is the method:
as §1

The subject of another test is Candida albicans KYF-602. To be noted: KYF602, read-out: Minimum Inhibitory Concentration. Here is the method:
as §1

In test [4] the test system is Candida albicans MTU-12124. To be noted: MTU12124, read-out: Minimum Inhibitory Concentration. As for the experimental part: as §1
Test [5] relates to Candida stellatidea IFO-1398. To be noted: IFO1398, read-out: Minimum Inhibitory Concentration. As for the experimental part: as §1
In another test the test system is Microsporum canis 20010. To be noted: read-out: Minimum Inhibitory Concentration. As for the experimental part: as §1
The test system of test [6] is Trichophyton mentagrophytes MTU-19003. To be noted: MTU19003, read-out: Minimum Inhibitory Concentration. Here is the method:
as §1

For test [7], the system named is Trichophyton mentagrophytes MTU-19005. To be noted: MTU19005, read-out: Minimum Inhibitory Concentration. Here is the method: as §1

Molecules are shown by their SMILES. In brackets after ≈: the same amount, converted by molar mass.

With `Clc1ccc(-c2ncc3nc(Cl)cc(Cl)n23)cc1` [Ex. 1, 2,4-dichloro-6-(4-chlorophenyl)imidazo[1,5-a]pyrimidine], the MIC in [1] is 6.25 µg/mL (≈ 20.9 µM); in the test with Candida albicans 3147 it was 6.25 µg/mL (≈ 20.9 µM); in test [2] it was 1.56 µg/mL (≈ 5.23 µM); in test [3] it was 3.13 µg/mL (≈ 10.5 µM); in the test on Candida albicans KYF-602, 6.25 µg/mL (≈ 20.9 µM); in [4], 3.13 µg/mL (≈ 10.5 µM). The MIC was found to be 0.2 µg/mL (≈ 0.67 µM) in [5], 0.78 µg/mL (≈ 2.61 µM) with Microsporum canis 20010, 1.56 µg/mL (≈ 5.23 µM) in test [6] and 0.78 µg/mL (≈ 2.61 µM) in [7].

`Clc1cc(Cl)n2c(-c3ccc(Br)cc3)ncc2n1` [Ex. 5]: the MIC in test [1] is 6.25 µg/mL (≈ 18.2 µM); in the test on Candida albicans 3147 it was 1.56 µg/mL (≈ 4.55 µM); in [2], 1.56 µg/mL (≈ 4.55 µM); in test [3], 3.13 µg/mL (≈ 9.13 µM); in the test on Candida albicans KYF-602, 6.25 µg/mL (≈ 18.2 µM); in test [4], 3.13 µg/mL (≈ 9.13 µM). The MIC in test [5] came to 0.2 µg/mL (≈ 0.583 µM); in the test with Microsporum canis 20010, 0.78 µg/mL (≈ 2.27 µM); in test [6], 1.56 µg/mL (≈ 4.55 µM); in [7], 0.78 µg/mL (≈ 2.27 µM).

As to `Clc1cc(Cl)n2c(-c3ccc(Cl)c(Cl)c3)ncc2n1` [Ex. 7], the MIC in [1] was above 100 µg/mL; in the test with Candida albicans 3147 it was 1.56 µg/mL (≈ 4.68 µM); in test [2] it was 1.56 µg/mL (≈ 4.68 µM); in test [3] it was 1.56 µg/mL (≈ 4.68 µM); in the test on Candida albicans KYF-602 it was 3.13 µg/mL (≈ 9.4 µM); in test [4], 1.56 µg/mL (≈ 4.68 µM). Also, the MIC in test [5] stood at 0.39 µg/mL (≈ 1.17 µM); in the test with Microsporum canis 20010 it was 0.39 µg/mL (≈ 1.17 µM); in [6] it was 0.78 µg/mL (≈ 2.34 µM); in [7] it was 139 µg/mL (≈ 417 µM).

On to `Clc1ccc(-c2ncc3nc(Cl)cc(Cl)n23)c(Cl)c1` [Ex. 9], for which the MIC in test [1] turned out to be 12.5 µg/mL (≈ 37.5 µM); with Candida albicans 3147, 1.56 µg/mL (≈ 4.68 µM); in test [2], 0.78 µg/mL (≈ 2.34 µM); in test [3], 3.13 µg/mL (≈ 9.4 µM); in the test on Candida albicans KYF-602 it was 6.25 µg/mL (≈ 18.8 µM); in test [4] it was 1.56 µg/mL (≈ 4.68 µM). For the same compound, the MIC in test [5] came out at 0.78 µg/mL (≈ 2.34 µM); with Microsporum canis 20010, 1.56 µg/mL (≈ 4.68 µM); in [6], 1.56 µg/mL (≈ 4.68 µM); in test [7] it was 0.78 µg/mL (≈ 2.34 µM).

Turning to `Clc1ccc(Cc2ncc3nc(Cl)cc(Cl)n23)cc1` [Ex. 16], the MIC in test [1] was determined as 3.13 µg/mL (≈ 10 µM); in the test on Candida albicans 3147, 1.56 µg/mL (≈ 4.99 µM); in test [2], 1.56 µg/mL (≈ 4.99 µM); in test [3] it was 1.56 µg/mL (≈ 4.99 µM); with Candida albicans KYF-602, 3.13 µg/mL (≈ 10 µM); in [4] it was 6.25 µg/mL (≈ 20 µM). The MIC in test [5] came out at 0.78 µg/mL (≈ 2.5 µM); in the test on Microsporum canis 20010, 0.39 µg/mL (≈ 1.25 µM); in [6] it was 1.56 µg/mL (≈ 4.99 µM); in test [7], 0.2 µg/mL (≈ 0.64 µM).

On to `CC(c1ccccc1)c1ncc2nc(Cl)cc(Cl)n12` (centres unmarked) [Ex. 18], for which the MIC in test [1] stood at 25 µg/mL (≈ 85.6 µM); with Candida albicans 3147, 3.13 µg/mL (≈ 10.7 µM); in [2], 0.78 µg/mL (≈ 2.67 µM); in test [3] it was 3.13 µg/mL (≈ 10.7 µM); with Candida albicans KYF-602, 12.5 µg/mL (≈ 42.8 µM); in [4], 3.13 µg/mL (≈ 10.7 µM). The MIC in test [5] was found to be 3.13 µg/mL (≈ 10.7 µM); in the test on Microsporum canis 20010 it was 1.56 µg/mL (≈ 5.34 µM); in test [6] it was 1.56 µg/mL (≈ 5.34 µM); in [7] it was 1.56 µg/mL (≈ 5.34 µM).

On to `Clc1ccc(Cc2ncc3nc(Cl)cc(Cl)n23)c(Cl)c1` [Ex. 20], for which the MIC is above 6.25 µg/mL in test [1]; 0.78 µg/mL (≈ 2.25 µM) with Candida albicans 3147; 0.78 µg/mL (≈ 2.25 µM) in [2]; 0.78 µg/mL (≈ 2.25 µM) in [3]; above 6.25 µg/mL in the test on Candida albicans KYF-602; 0.78 µg/mL (≈ 2.25 µM) in test [4]. The MIC was 0.2 µg/mL (≈ 0.576 µM) in test [5], 0.78 µg/mL (≈ 2.25 µM) in the test with Microsporum canis 20010, 1.56 µg/mL (≈ 4.5 µM) in [6] and 0.78 µg/mL (≈ 2.25 µM) in [7].

As to `Clc1cc(Cl)n2c(-c3ccc(I)cc3)ncc2n1` [Ex. 21], the MIC was 1.56 µg/mL (≈ 4 µM) in the test with Candida albicans 3147; 3.13 µg/mL (≈ 8.03 µM) in [2]; 6.25 µg/mL (≈ 16 µM) in test [3]; above 6.25 µg/mL in the test with Candida albicans KYF-602; 1.56 µg/mL (≈ 4 µM) in test [4]; 1.56 µg/mL (≈ 4 µM) in [5].

Turning to `Clc1cc(Cl)n2c(C3CCCCC3)ncc2n1` [Ex. 23], the MIC turned out to be 50 µg/mL (≈ 185 µM) in test [1]; 1.56 µg/mL (≈ 5.77 µM) in the test on Candida albicans 3147; 0.2 µg/mL (≈ 0.74 µM) in [2]; 0.39 µg/mL (≈ 1.44 µM) in test [3]; 3.13 µg/mL (≈ 11.6 µM) in the test on Candida albicans KYF-602; 6.25 µg/mL (≈ 23.1 µM) in test [4]. Moreover, the MIC in [5] came to 3.13 µg/mL (≈ 11.6 µM); in the test with Microsporum canis 20010, 1.56 µg/mL (≈ 5.77 µM); in test [6] it was 3.13 µg/mL (≈ 11.6 µM); in test [7] it was 1.56 µg/mL (≈ 5.77 µM).
